# Reference: patent US12180255B2, “Compositions and methods for derepressing RE1 silencing transcription factor target genes” (Alcamena Stem Cell Therapeutics, LLC, priority 2019, dated 2024)
# Key:
# His-CTDSP1 = molecular target: T1, His-CTDSP1 (Homo sapiens, UniProt Q9GZU7); assay: Binding affinity of RPP for CTDSP1, Monolith (NanoTemper); settings: His-CTDSP1 40 nM labelled with RED-tris NTA dye 20 nM
# T1 construct: made in house; host or cells: E. coli 10G (Lucigen), pBAD-HisA
# T1 sequence (Q9GZU7 with tags, fused parts or gaps): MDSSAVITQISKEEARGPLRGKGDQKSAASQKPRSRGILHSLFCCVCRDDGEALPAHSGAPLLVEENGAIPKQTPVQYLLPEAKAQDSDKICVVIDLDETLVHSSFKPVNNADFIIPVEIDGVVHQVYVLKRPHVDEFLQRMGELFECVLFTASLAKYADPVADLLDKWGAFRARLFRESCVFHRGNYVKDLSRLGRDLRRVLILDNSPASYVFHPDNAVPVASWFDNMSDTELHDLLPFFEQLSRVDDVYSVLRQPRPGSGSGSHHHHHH
# Procedure: FIG. 2. Binding affinity of the REST phosphomimetic peptide (RPP) for CTDSP1 was measured using the Monolith (NanoTemper). […] Binding was assessed by fluorescently labelling the His tag on CTDSP1 (40 nM) with RED-tris NTA dye (20 nM) and measuring the change in fluorescents when RPP (up to […]) is bound.
# Expression constructs for His-CTDSPL (Table 2; SEQ ID NO: 162) and GST-RPP (Table 4; SEQ ID NO: 164) were constructed and purified as described in Example 2. The His tag on CTDSP1 (40 nM) was labelled with RED-tris NTA dye (20 nM), with a […] dye to CTDSP1 ratio, and unbound dye was removed by gravity-flow size exclusion. Binding affinity of the linear GST-RPP (Table 4; SEQ ID NO: 165) to His-CTDSP1 (Table 2; SEQ ID NO:163) was determined using Monolith (NanoTemper), following manufacturer recommendations. Results of the binding assay are presented in FIG. 2: The RPP (Table 4; SEQ ID NO: 165) was assessed for binding to His-CTDSP1 at several concentrations ranging from low pM up to 0.5 μM.
# [1] = Conditioned Place Preference after morphine in SNI mice; type: in vivo; settings: 4 doses
# Source text: FIG. 24. Conditioned Place Preference (CPP) after conditioning with saline (control) and 4 doses of morphine (MOR) in SNI mice.
# [2] = Mechanical pain threshold after SNI, morphine analgesia; type: in vivo; settings: single S.C. injection, n=4
# Procedure: FIG. 23. […] B. Analgesic effect of single S.C. injection of morphine on MT post-injury (SNI+MOR, n=4). Mean±SEM; F=4.62, *p<0.05 by one-way ANOVA before and after treatment; mean difference and 95% CI=−7.3, −14.5 to −0.135, p<0.05 by Bonferroni's Multiple Comparison test. 20 mg/Kg of MOR (n=4; F=19.03, **p<0.001 by one-way ANOVA).
# NBFL cells = assay: KV4.3 mRNA in NBFL cells transfected with plasmid expressing RPP; type: cell-based
# Procedure: FIG. 8. mRNA levels of KV4.3 in NBFL cells 48 h after CTDSP1 inhibition. Cells were transfected with a plasmid expressing RPP (SEQ ID NO: 1) with GFP (+) or a control peptide with GFP (−). 24 hours after transfection, cells were sorted based on fluorescence intensity. Error bars represent standard deviation, n=2.
# Transient Transfections and Cell Culture. NBFL cells were grown as previously described^120. 0.5 M NFBL cells were seeded on a 35 mm dish, incubated at 37° C. overnight, and transfected with 2 μg of REST (SEQ. ID NO: 1)-IRES-GFP cDNA^2 using lipofectamine2000 (Life Technologies), following manufacturer recommendations. After a 48 hour incubation period, cell were sorted by fluorescence activated cell sorting (FACS),
# mRNA extraction and quantification. mRNA was extracted, as described in Example 10, from GFP+ and − cells; mRNA levels of KV4.3 were determined using real-time RT-PCR^116. Gene expression was normalized using β-actin (ACTB) as an internal housekeeping control. The β-actin primers used are the same as Example 10. The KV4.3 primers were: forward: […] (SEQ ID NO: 336) and reverse: […] (SEQ ID NO: 337).
compound,measurement,setting,value
"SEQ ID NO: 165: RPP-GST fusion protein, MCTEDLEPPEPPLPKENC linked to GST (Table 4)",Kd,His-CTDSP1,~0.13 nM
CN1CC[C@]23c4c5ccc(O)c4O[C@H]2[C@@H](O)C=C[C@H]3[C@H]1C5 [morphine],Conditioned Place Preference (CPP),[1],induced CPP in a dose-dependent manner
same,"mechanical pain threshold (MT), mean difference before and after treatment",[2],−7.3
"TEDLEPPEPPLPKEN [SEQ ID NO: 1, REST phosphomimetic peptide (RPP)]",increase in KV4.3 mRNA,NBFL cells; NBFL cells transfected with RPP,2 fold
same,"Increase, KV4.3 mRNA","NBFL cells; NBFL, 2 μg (transfected), 48 h",3x
